US20150353495A1 (PORTOLA PHARMACEUTICALS, INC., priority 2010, published 2015)

How the values were obtained:
Type in all cases: biochemical
JAK1 = target: T1, JAK1 (Homo sapiens, UniProt P23458); assay: Z'-LYTE kinase assay JAK1
T1 construct: 5 μl of catalytic domain recombinant Kinase enzyme+Tyr peptide substrate (Invitrogen, CA); purchased Invitrogen
Procedure: (§1) JAK and TYK2 tyrosine phosphorylation activity is measured using the Z′-LYTE™ Technology developed by Invitrogen Corporation (Carlsbad, Calif.). For JAK1, JAK2 and JAK3 the Z′-LYTE™ Kinase Assay Kit-Tyr6 Peptide (part number PV4122) was used. For TYK2 the Z′-LYTE™ Kinase Assay Kit-Tyr6 Peptide (part number PV3192) was used. The Z′-LYTE™ biochemical assay employs a fluorescence resonance energy transfer (FRET) coupled-enzyme format and is based on the differential sensitivity of phosphorylated and non-phosphorylated peptides to proteolitic cleavage. The assay uses a synthetic peptide substrate that is labelled with a donor fluorophore (coumarin) and an acceptor fluorophore (fluorescein) that make up a FRET pair. In the primary reaction (the Kinase Reaction), the kinase transfers the γ-phosphate of ATP to a single tyrosine residue on the substrate, while the presence of a kinase inhibitor in the primary reaction suppresses phosphorylation. In the secondary reaction (the Development Reaction), a site-specific protease (the Development Reagent) is added. The development buffer quenches the Kinase Reaction, while the protease recognizes and cleaves non-phosphorylated Z′-LYTE™ peptide substrate. Cleavage disrupts FRET between the donor and acceptor fluorophores on the non-phosphoryleted substrate, while uncleaved, phosphorylated substrate maintains FRET.
(§2) To test the ability of candidate molecules to inhibit JAK tyrosine phosphorylation activity, molecules are reconstituted in 100% DMSO and serially diluted 1:10 in polypropylene v-bottom microtiter plates. The candidate molecules are then diluted 1:25 into kinase buffer and 2.5 μl transferred into duplicate wells of a 384 well low volume black microtiter assay plate (Corning, USA). The final DMSO concentration in the assay is 1%. The kinase reaction contains 2.5 μl of a candidate molecule, 5 μl of catalytic domain recombinant Kinase enzyme+Tyr peptide substrate (Invitrogen, CA) and 2.5 μl ATP (Invitrogen, CA). The kinase reaction is allowed to procede for 1 hour at room temperature. The protease reaction is initiated by the addition of 5 μl Development Reagent (Invitrogen, CA). After 1 hour incubation at room temperature the fluorescence is measured using a FlexStation plate reader (Molecular Devices, Sunnyvale, Calif.).

JAK2 = target: T2, JAK2 (Homo sapiens, UniProt O60674); assay: Z'-LYTE kinase assay JAK2
T2 construct: 5 μl of catalytic domain recombinant Kinase enzyme+Tyr peptide substrate (Invitrogen, CA); purchased Invitrogen
Procedure: as §1, §2

JAK3 = target: T3, JAK3 (Homo sapiens, UniProt P52333); assay: Z'-LYTE kinase assay JAK3
T3 construct: 5 μl of catalytic domain recombinant Kinase enzyme+Tyr peptide substrate (Invitrogen, CA); purchased Invitrogen
Procedure: as §1, §2

T3 sequence (P52333 822-1111 limits assumed): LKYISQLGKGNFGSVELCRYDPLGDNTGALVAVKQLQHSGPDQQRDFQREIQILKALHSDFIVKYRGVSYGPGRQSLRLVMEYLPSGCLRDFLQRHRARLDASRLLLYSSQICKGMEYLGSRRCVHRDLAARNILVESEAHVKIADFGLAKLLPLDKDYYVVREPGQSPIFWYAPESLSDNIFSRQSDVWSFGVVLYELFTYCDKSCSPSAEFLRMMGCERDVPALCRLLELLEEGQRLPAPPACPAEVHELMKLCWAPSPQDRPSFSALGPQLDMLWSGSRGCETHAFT
T1 sequence (P23458 875-1153 limits assumed): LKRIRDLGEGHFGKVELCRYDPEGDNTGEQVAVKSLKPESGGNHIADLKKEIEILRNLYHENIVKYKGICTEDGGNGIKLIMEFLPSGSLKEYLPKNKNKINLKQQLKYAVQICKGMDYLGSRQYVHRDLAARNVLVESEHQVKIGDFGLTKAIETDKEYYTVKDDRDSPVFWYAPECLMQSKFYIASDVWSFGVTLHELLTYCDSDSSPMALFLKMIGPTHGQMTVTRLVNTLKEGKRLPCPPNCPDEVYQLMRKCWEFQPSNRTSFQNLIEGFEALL
T2 sequence (O60674 849-1124 limits assumed): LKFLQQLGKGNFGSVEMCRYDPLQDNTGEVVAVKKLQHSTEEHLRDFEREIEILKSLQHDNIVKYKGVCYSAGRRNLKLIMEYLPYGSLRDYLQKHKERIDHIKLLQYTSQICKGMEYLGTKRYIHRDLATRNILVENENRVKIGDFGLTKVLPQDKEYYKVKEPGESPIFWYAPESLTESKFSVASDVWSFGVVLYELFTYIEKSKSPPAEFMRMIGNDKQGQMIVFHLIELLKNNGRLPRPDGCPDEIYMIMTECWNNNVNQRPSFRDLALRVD

Row | IC50 (JAK1) [nM] | IC50 (JAK2) [nM] | IC50 (JAK3) [nM] | Structure (SMILES)
1 | 100 to 1000 | 10 to 100 | 10 to 100 | C[C@@H](Nc1cc(Nc2ccc(C3CCOCC3)cc2)ncc1C(N)=O)C(C)(C)C [Example 168, (R)-4-(3,3-dimethylbutan-2-ylamino)-6-(4-(tetrahydro-2H-pyran-4-yl)phenylamino)nicotinamide]
2 | 100 to 1000 | 100 to 1000 | 1 to 10 | COCC(=O)N1CC(c2ccc(Nc3cc(NCc4ccccc4)c(C(N)=O)cn3)cc2)C1 [Example 336, 4-(benzylamino)-6-(4-(1-(2-methoxyacetyl)azetidin-3-yl)phenylamino)nicotinamide]
3 | > 1000 | 100 to 1000 | 10 to 100 | NC(=O)c1cnc(Nc2ccc(C3CCOCC3)cc2)cc1NCC1CCCC1 [Example 154, 4-(cyclopentylmethylamino)-6-(4-(tetrahydro-2H-pyran-4-yl)phenylamino)nicotinamide]
4 | > 1000 | > 1000 | 100 to 1000 | NC(=O)c1cnc(Nc2ccc(C3CCOCC3)cc2)cc1NCc1ncccn1 [Example 175, 4-(pyrimidin-2-ylmethylamino)-6-(4-(tetrahydro-2H-pyran-4-yl)phenylamino)nicotinamide]
5 | > 1000 | 100 to 1000 | 10 to 100 | CCC(=O)N1CCC(c2ccc(Nc3cc(NCC4CCOCC4)c(C(N)=O)cn3)cc2)CC1 [Example 144, 6-(4-(1-propionylpiperidin-4-yl)phenylamino)-4-((tetrahydro-2H-pyran-4-yl)methylamino)nicotinamide]
6 | > 1000 | > 1000 | 100 to 1000 | NC(=O)c1cnc(Nc2ccc(C3CCOCC3)cc2)cc1NC1CCCCC1 [Example 157, 4-(cyclohexylamino)-6-(4-(tetrahydro-2H-pyran-4-yl)phenylamino)nicotinamide]
7 | > 1000 | 100 to 1000 | 10 to 100 | CCC(=O)N1CCC(c2ccc(Nc3cc(NCc4ccccn4)c(C(N)=O)cn3)cc2)CC1 [Example 179, 6-(4-(1-propionylpiperidin-4-yl)phenylamino)-4-(pyridin-2-ylmethylamino)nicotinamide]

The remaining lines, values behind:

Row | Structure (SMILES) | IC50 (JAK1) [nM] | IC50 (JAK2) [nM] | IC50 (JAK3) [nM]
8 | NC(=O)c1cnc(Nc2ccc(N3CCCCC3)cc2)cc1NC1(c2ccccc2)CC1 [Example 362] | > 1000 | > 1000 | 10 to 100
9 | CN(C)C(=O)C1CCN(c2ccc(Nc3cc(NCc4cccc5sccc45)c(C(N)=O)cn3)cc2)CC1 [Example 344, 4-(benzo[b]thiophen-4-ylmethylamino)-6-(4-(4-(dimethylcarbamoyl)piperidin-1-yl)phenylamino)nicotinamide] | 100 to 1000 | 10 to 100 | 1 to 10
10 | CS(=O)(=O)Cc1ccc(Nc2cc(NCc3cccc4ccsc34)c(C(N)=O)cn2)cc1 [Example 346, 4-(benzo[b]thiophen-7-ylmethylamino)-6-(4-(methylsulfonylmethyl)phenylamino)nicotinamide] | 10 to 100 | 10 to 100 | < 1
11 | CN(C(=O)C1CC1)c1ccc(Nc2cc(NCc3cccc4cc[nH]c34)c(C(N)=O)cn2)cc1 [Example 478, 4-((1H-indol-7-yl)methylamino)-6-(4-(N-methylcyclopropanecarboxamido)phenylamino)nicotinamide] | > 1000 | 100 to 1000 | 100 to 1000
12 | COc1ccc(Nc2cc(NCc3cccc4c3ccn4C)c(C(N)=O)cn2)cc1 [Example 303, 6-(4-methoxyphenylamino)-4-((1-methyl-1H-indol-4-yl)methylamino)nicotinamide] | > 1000 | > 1000 | 10 to 100
13 | CCC(=O)N1CCC(c2ccc(Nc3cc(N[C@H](C)C4CCCCC4)c(C(N)=O)cn3)cc2)CC1 [Example 191, (R)-4-(1-cyclohexylethylamino)-6-(4-(1-propionylpiperidin-4-yl)phenylamino)nicotinamide] | > 1000 | > 1000 | 100 to 1000
14 | COCC(=O)N1CCC[C@H](CNc2cc(Nc3ccc(C(=O)N(C)C)cc3)ncc2C(N)=O)C1 [Example 266, (R)-6-(4-(dimethylcarbamoyl)phenylamino)-4-((1-(2-methoxyacetyl)piperidin-3-yl)methylamino)nicotinamide] | > 1000 | > 1000 | 10 to 100
15 | N#Cc1cccc(Nc2cc(NCc3ccccc3)c(C(N)=O)cn2)c1 [Example 391] | > 1000 | > 1000 | 10 to 100
